The subject of this experiment is 521955-158-R2-J5-PDC complex spheroid viability. As to the kind of experiment: Anticancer human tumor 521955-158-R2-J5-PDC patient-derived pancreatic carcinoma cell line growth inhibition [GQUAD]. The following applies: for viability, T/C: stronger effect = lower value. The text has this: DNA G-quadruplex Stabilizer Agents in Combinations in Complex Spheroids
A high-throughput screen of multi-cell type tumor spheroids was designed to identify active combinations of DNA G-quadruplex stabilizer agents and targeted small molecules. Complex spheroids include a stromal component modeled by human endothelial cells (HUVEC) and fibroblasts modeled by human mesenchymal stem cells (MSCs). The concentration ranges selected for each drug and investigational agent were based upon clinically achievable concentrations if the clinical Cmax of the agent was known.
Compounds. The drugs and investigational agents: pidnarulex (CX-5461; NSC782164), APTO-253 (NSC789042), BRACO-19 (NSC847499), peposertib (NSC802822), ceralasertib (NSC780249), elimusertib (NSC800525), camonsertib (NSC841442), AZD-1390 (NSC803789), olaparib (NSC753686), talazoparib (NSC767125), ART-558 (NSC835418), sotorasib (NSC818433), MRTX-1133 (NSC836407), SN-38 (NSC673596), topotecan (NSC609699), etoposide (NSC141540), doxorubicin (NSC123127), gemcitabine (NSC613327), 5-fluorouracil (NSC19893), paclitaxel (NSC125973), vemurafenib (NSC761431), panobinostat (NSC761190), R-306465 (JNJ-16241199; NSC773264), adavosertib (NSC754352), TP-3654 (NSC805149), carboplatin (NSC241240), KSQ-4279 (NSC840948), and staurosporine (NSC755774) were obtained from the National Cancer Institute (NCI) Developmental Therapeutics Program Chemical Repository (34). The FDA-approved anticancer drug set is available from the NCI Developmental Therapeutics Program. […] The stock solutions were prepared in dimethyl sulfoxide (DMSO, Sigma-Aldrich, St. Louis, MO, cat. D2650) at 800-fold the tested concentration and stored at -70 degrees C prior to their use. All drugs and investigational agents were tested over a range starting from a high concentration at or near the clinical Cmax and decreasing in half-log increments. If the clinical Cmax for an agent had not been determined, the highest concentration tested was 10 microM.
2.3 Cell Culture. All cells were maintained in an incubator at 37 degrees C and 5% CO2 with 95% humidity. The PDC lines were cultured according to standard operating procedures established by the NCI PDMR. All PDCs were thawed and cultured in Matrigel-coated flasks prepared with a working solution of 1X Ham's F-12 nutrient mix, without supplementation (Invitrogen, cat. 11765054), 100 U/mL penicillin-streptomycin (Invitrogen, cat. 15140122), and 2.5% Matrigel (Corning Inc., cat. 354248) for the first three passages. The 857933-349-R-J2-PDC line was cultured in 6C/Colon 1B media, which includes advanced DMEM/F-12 (Thermo Fisher Scientific, cat. 12634028), 10 mM HEPES (Thermo Fisher Scientific, cat. 15630080), 1X GlutaMAX supplement (Thermo Fisher Scientific, cat. 35050061), 0.1 mg/mL primocin (InvivoGen, cat. ant-pm-2), 10% defined fetal bovine serum, heat inactivated (HyClone Laboratories Inc., cat. SH30070.03HI), 50% L-WRN conditioned media (ATCC, cat. CRL-3276), 1.25 mM N-Acetyl-L-cysteine (Sigma-Aldrich, cat. A9165), 10 mM nicotinamide (Sigma-Aldrich, cat. N0636), 1X B-27 supplement (Thermo Fisher Scientific, cat. 17504044), 1X N-2 supplement (Thermo Fisher Scientific, cat. 17502048), 10 microM Y-27632 dihydrochloride (Tocris Bioscience, cat. 1254), and 50 ng/mL human EGF recombinant protein (Thermo Fisher Scientific, cat. PHG0311). The 485176-168-R4-J1-PDC line was cultured in Panc media, which includes all 6C/Colon 1B media components plus 100 ng/mL human FGF-10 (Thermo Fisher Scientific, cat. 100-26), 500 nM SB-431542 (Selleckchem, cat. S1067), and gastrin (Tocris, cat. 3006).
[…]

SMILES strings stand for the structures. “And” between values parts separate entries of the source, which are not always exact repeats. Equal values may be shown once. Some results are limits rather than exact numbers.

What is called IC50 is the concentration that inhibits the measured activity by half. Broadly, the viability, T/C is the ratio of treated to control.
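Note: spheroids exposed to agents for one week before reading.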

Turning to `CC(=O)O[C@H]1C(=O)[C@@]2(C)[C@H]([C@H](OC(=O)c3ccccc3)[C@]3(O)C[C@H](OC(=O)[C@H](O)[C@@H](NC(=O)c4ccccc4)c4ccccc4)C(C)=C1C3(C)C)[C@]1(OC(C)=O)CO[C@@H]1C[C@@H]2O` + CN(C)c1ccc(Nc2c3ccc(NC(=O)CCN4CCCC4)cc3nc3cc(NC(=O)CCN4CCCC4)ccc23)cc1, the IC50 (curve of first compound, second compound 0.0316 µM) is under 31.6 nM; the IC50 (curve of first compound, second compound 0.1 µM) amounted to 44.8 nM; the IC50 (curve of first compound, second compound 0.316 µM) was under 31.6 nM; the IC50 (curve of first compound, second compound 1 µM) was under 31.6 nM; the IC50 (curve of first compound, second compound 3.16 µM) came out at 31.7 nM; the concentration for half-maximal inhibition (IC50) (curve of first compound, second compound 10 µM) is under 31.6 nM. Moreover, the viability, T/C is 46.1% (second compound 0.0316 µM, first compound 0.0316 µM); 40.9% (second compound 0.0316 µM, first compound 0.1 µM); 35.2% (second compound 0.0316 µM, first compound 0.316 µM); 32.3% (second compound 0.0316 µM, first compound 1 µM); 27.5% (second compound 0.0316 µM, first compound 3.16 µM); 34.7% (second compound 0.0316 µM, first compound 10 µM). Further, the viability, T/C is 55.7% (second compound 0.1 µM, first compound 0.0316 µM); 37.6% (second compound 0.1 µM, first compound 0.1 µM); 30.8% (second compound 0.1 µM, first compound 0.316 µM); 23% (second compound 0.1 µM, first compound 1 µM); 33.9% (second compound 0.1 µM, first compound 3.16 µM); 29.9% (second compound 0.1 µM, first compound 10 µM). The viability, T/C is, setting by setting: (second compound 0.316 µM, first compound 0.0316 µM) 47.7%; (second compound 0.316 µM, first compound 0.1 µM) 34.1%; (second compound 0.316 µM, first compound 0.316 µM) 28%; (second compound 0.316 µM, first compound 1 µM) 22.7%; (second compound 0.316 µM, first compound 3.16 µM) 29.4%; (second compound 0.316 µM, first compound 10 µM) 33.1%. For the same molecule, the viability, T/C reads like this: (second compound 1 µM, first compound 0.0316 µM) 54.6%; (second compound 1 µM, first compound 0.1 µM) 33%; (second compound 1 µM, first compound 0.316 µM) 28.3%; (second compound 1 µM, first compound 1 µM) 33.9%; (second compound 1 µM, first compound 3.16 µM) 39.4%; (second compound 1 µM, first compound 10 µM) 38.5%. Further, the viability, T/C is 50% (second compound 3.16 µM, first compound 0.0316 µM); 31.1% (second compound 3.16 µM, first compound 0.1 µM); 30.3% (second compound 3.16 µM, first compound 0.316 µM); 31.5% (second compound 3.16 µM, first compound 1 µM); 33.4% (second compound 3.16 µM, first compound 3.16 µM); 42% (second compound 3.16 µM, first compound 10 µM). Moreover, the viability, T/C is 50.9% (second compound 10 µM, first compound 0.0316 µM); 35.2% (second compound 10 µM, first compound 0.1 µM); 36.4% (second compound 10 µM, first compound 0.316 µM); 27.8% (second compound 10 µM, first compound 1 µM); 29.9% (second compound 10 µM, first compound 3.16 µM); 35.2% (second compound 10 µM, first compound 10 µM).
In the case of `Cc1[nH]c2ccccc2c1CCNCc1ccc(/C=C/C(=O)NO)cc1`, the viability, T/C by setting is: (compound 0.000999 µM) 110% and 125% and 100%; (compound 0.00316 µM) 103% and 117% and 100%; (compound 0.00999 µM) 139% and 135% and 112%; (compound 0.0316 µM) 103% and 110% and 102%; (compound 0.0999 µM) 55.7% and 53.2% and 51%; (compound 0.316 µM) 20.8% and 22.1% and 11.1%. The concentration for half-maximal inhibition (IC50) (curve of compound) is 118 nM and 111 nM and 103 nM.
With `CCc1c2c(nc3ccc(O)cc13)-c1cc3c(c(=O)n1C2)COC(=O)[C@]3(O)CC`, the viability, T/C by setting is: (compound 0.000999 µM) 71% and 85.3% and 74.8%; (compound 0.00316 µM) 12.1% and 39.8% and 21.3%; (compound 0.00999 µM) 7.66% and 28.1% and 9.19%; (compound 0.0316 µM) 6.38% and 17.9% and 8.13%; (compound 0.0999 µM) 5.13% and 11.7% and 5.42%; (compound 0.316 µM) 3% and 10.7% and 2.39%. Moreover, the IC50 (curve of compound) is 1.51 nM and 2.59 nM and 1.71 nM.

The values above are taken from PubChem BioAssay AID2060495 (Molecular Pharmacology Branch, DTP, NCI, 2025).
